# From the NIST ThermoML archive (doi:10.1021/je7001539)
# ± gives the expanded uncertainty stated by the source.
# Conditions: Liquid
smiles,measurement,setting,value
CC(C)C [2-methylpropane],vapor or sublimation pressure,243.15 K,46.2 ± 3.2 kPa
same,vapor or sublimation pressure,253.15 K,72 ± 3.5 kPa
same,vapor or sublimation pressure,263.15 K,107.9 ± 3.9 kPa
same,vapor or sublimation pressure,272.15 K,150.9 ± 4.6 kPa
same,vapor or sublimation pressure,283.15 K,220.1 ± 5.9 kPa
same,vapor or sublimation pressure,293.15 K,301.8 ± 7.6 kPa
same,vapor or sublimation pressure,303.15 K,404.3 ± 10 kPa
same,vapor or sublimation pressure,313.15 K,530.8 ± 13 kPa
same,vapor or sublimation pressure,323.15 K,684.3 ± 17 kPa
same,vapor or sublimation pressure,333.15 K,868.3 ± 22 kPa
FC(F)C(F)(F)F [pentafluoroethane],vapor or sublimation pressure,243.15 K,228.5 ± 6.1 kPa
same,vapor or sublimation pressure,253.15 K,337.9 ± 8.5 kPa
same,vapor or sublimation pressure,263.15 K,483.1 ± 12 kPa
same,vapor or sublimation pressure,272.15 K,650.1 ± 16 kPa
same,vapor or sublimation pressure,283.15 K,908.8 ± 23 kPa
same,vapor or sublimation pressure,293.15 K,1204.5 ± 30 kPa
same,vapor or sublimation pressure,303.15 K,1566.8 ± 39 kPa
same,vapor or sublimation pressure,313.15 K,2005.6 ± 50 kPa
same,vapor or sublimation pressure,323.15 K,2533.2 ± 63 kPa
same,vapor or sublimation pressure,333.15 K,3167.4 ± 79 kPa
